This is an account of results in patent publication US8080657B2, “Compounds of reverse turn mimetics and the use thereof” (Choongwae Pharma Corporation, priority 2008, dated 2011).

In one assay the test system is MV-4-11 cells. Briefly: Cell growth inhibition assay on AML cancer cells (CellTiter 96). In kind it is cell-based. The following applies: Homo sapiens, MV4-11; cell growth inhibition on AML cancer cells, MV-4-11; read-out: MV-4-11, GI50. The protocol:
The lower GI50 value means the higher inhibition activity.
Cell Growth Inhibition Activity on AML Cancer Cells (Cell Growth Inhibition Assay)
Cell growth Inhibition assay was performed to investigate the rate of inhibition of cell proliferation by the test compounds. MV-4-11 (human, Acute Myeloid Leukemia cell line) cells were cultured in Iscove's modified Dulbecco's medium (IMDM) including 10% fetal bovine serum (FBS), 1× penicillin/streptomycin (10,000 units/ml Penicillin, […] Streptomycin in 0.85% NaCl). MV-4-11 cells were harvested with IMDM medium and 5×10^4 cells/well were transferred to each well of 96 well culture plates (Nunc, #167008). The test compounds were treated with the serial dilution and duplicated for each concentration. For the serial dilution, the test compounds were repeatedly diluted with the same volume of media onto 96-well assay block (costar, #3956). After the dilution, each compound was added to each well. The background absorbance was also measured during the test compounds treatment by adding the IMDM media in replacement of test compound to the negative control plate. The plates were incubated for 3 days (72 hours) at 37° C. in the humidified incubator containing 5% CO2. On the last day, 20 μL of CellTiter 96 Aqueous One Solution (Promega #G3581) was added to the culture in each well and the plates were incubated for a few hours at 37° C. in the humidified incubator containing 5% CO2. After the incubation, the absorbance of each cell was measured at 490 nm using an EnVision (Perkinelmer, USA). The GI50 values were calculated using a Prism 3.0 program.

Assay [1] deals with T1, cDNA-expressed human hepatic CYP3A4 (Homo sapiens, UniProt P08684).
T1 construct: purchased BD Gentest 456202
Briefly: P450 CYP3A4 inhibitory activity screening (BFC substrate, fluorescence). The format is biochemical. The following applies: P450 CYP3A4 inhibitory activity screening, fluorescent assay; read-out: CYP3A4 inhibition, IC50 (μM) fluorescent assay. The protocol:
P450 CYP3A4 Inhibitory Activity Screening
Assay was conducted in a 200 μL volume in 96-well microtiter plates using cDNA-expressed human hepatic CYP3A4 (supersome, BD Gentest™ #456202). 7-Benzyloxy-4-trifluoromethyl-coumarin (BFC) was used as a substrate for CYP3A4. Test articles and substrate BFC were dissolved in 100% acetonitrile. The final volume of acetonitrile in the incubation mixture was less than 1% (volume/volume). Potassium phosphate buffer (pH 7.4, final concentration 0.1 M), MgCl2 (final concentration 8.3 mM), EDTA (final concentration 1.67 mM), a test article stock solution, a CYP3A4 supersome and NADPH (final concentration 0.25 mM) were added to each well. The reaction was initiated by the addition of substrate (BFC, final concentration 30 µM) after a 10 min pre-incubation at 37° C. After 10 min incubation at 37° C., the reaction was terminated by the addition of 75 μL of acetonitrile:0.5 M Tris-base=4:1 (volume/volume). Thereafter, Fluorescent signal was measured using a fluorometer. BFC metabolite, 7-hydroxy-4-trifluoromethyl-coumarin, was measured using an excitation wavelength of 409 nm and an emission wavelength of 530 nm.

What is called GI50 is the concentration that inhibits growth by half. Usually IC50 stands for the concentration at which inhibition is half-maximal.

T1 sequence (P08684 whole entry): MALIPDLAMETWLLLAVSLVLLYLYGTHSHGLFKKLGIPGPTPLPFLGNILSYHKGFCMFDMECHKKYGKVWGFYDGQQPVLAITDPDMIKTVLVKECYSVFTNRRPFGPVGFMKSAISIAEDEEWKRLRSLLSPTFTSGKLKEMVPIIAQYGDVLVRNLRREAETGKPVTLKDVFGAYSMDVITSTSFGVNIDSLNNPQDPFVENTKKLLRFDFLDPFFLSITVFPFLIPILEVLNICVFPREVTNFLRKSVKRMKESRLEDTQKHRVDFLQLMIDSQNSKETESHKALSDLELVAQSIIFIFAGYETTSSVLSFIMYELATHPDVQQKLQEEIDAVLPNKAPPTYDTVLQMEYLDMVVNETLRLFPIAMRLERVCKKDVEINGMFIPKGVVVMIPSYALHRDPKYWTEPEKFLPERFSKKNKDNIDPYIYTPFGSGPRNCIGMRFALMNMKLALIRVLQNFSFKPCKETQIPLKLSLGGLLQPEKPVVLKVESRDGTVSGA

Take `C=CCN1CC(=O)N2[C@@H](Cc3ccc(O)cc3)C(=O)N(Cc3cccc4c3ncn4CC(N)=O)C[C@@H]2N1C(=O)NCc1ccccc1` [compound 1]: the GI50 in the assay on MV-4-11 cells is 190 nM.
Same read-out and setting: the same measure for `C=CCN1CC(=O)N2[C@@H](Cc3ccc(O)cc3)C(=O)N(Cc3cccc4c3OC(F)(F)O4)C[C@@H]2N1C(=O)NCc1ccccc1` [compound 2]: 600 nM; for `C=CCN1CC(=O)N2[C@@H](Cc3ccc(O)cc3)C(=O)N(Cc3csc4ccccc34)C[C@@H]2N1C(=O)NCc1ccccc1` [compound 3]: 180 nM; for `C=CCN1CC(=O)N2[C@@H](Cc3ccc(O)cc3)C(=O)N(Cc3cccc4c(C(C)=O)c[nH]c34)C[C@@H]2N1C(=O)NCc1ccccc1` [compound 6]: 40 nM.
Take `C=CCN1CC(=O)N2[C@@H](Cc3ccc(O)cc3)C(=O)N(Cc3ccc(OC)cc3F)C[C@@H]2N1C(=O)NCc1ccccc1` [compound 10]: the GI50 in the assay with MV-4-11 cells was found to be 1320 nM.
`C=CCN1CC(=O)N2[C@@H](Cc3ccc(O)cc3)C(=O)N(Cc3ccc(OC)c(Cl)c3)C[C@@H]2N1C(=O)NCc1ccccc1` [compound 11]: the GI50 with MV-4-11 cells came out at 1970 nM.
Regarding `C=CCOc1ccc(CN2C[C@H]3N(C(=O)CN(CC=C)N3C(=O)NCc3ccccc3)[C@@H](Cc3ccc(O)cc3)C2=O)cc1` [compound 12], the GI50 in the assay on MV-4-11 cells worked out at 2990 nM.
As to `C=CCN1CC(=O)N2[C@@H](Cc3ccc(O)cc3)C(=O)N(Cc3ccccc3N3CCCC3)C[C@@H]2N1C(=O)NCc1ccccc1` [compound 13], in the assay with MV-4-11 cells, the GI50 came out at 2010 nM.
For `C=CCN1CC(=O)N2[C@@H](Cc3ccc(O)cc3)C(=O)N(Cc3ccccc3SC)C[C@@H]2N1C(=O)NCc1ccccc1` [compound 14], the GI50 in the assay on MV-4-11 cells worked out at 160 nM.
As to `C=CCN1CC(=O)N2[C@@H](Cc3ccc(O)cc3)C(=O)N(Cc3cccc(OC)c3OC)C[C@@H]2N1C(=O)NCc1ccccc1` [compound 15], in the assay with MV-4-11 cells, the GI50 was found to be 2140 nM.
For the compound `C=CCN1CC(=O)N2[C@@H](Cc3ccc(O)cc3)C(=O)N(Cc3cccc(C(C)(C)C)c3OC)C[C@@H]2N1C(=O)NCc1ccccc1` [compound 16], the GI50 in the assay with MV-4-11 cells came out at 630 nM.
Same read-out and setting: the same measure for `C=CCN1CC(=O)N2[C@@H](Cc3ccc(O)cc3)C(=O)N(Cc3cccc(C(N)=O)c3)C[C@@H]2N1C(=O)NCc1ccccc1` [compound 17]: 360 nM; for `C=CCN1CC(=O)N2[C@@H](Cc3ccc(O)cc3)C(=O)N(Cc3cccc(C(=O)NOC)c3)C[C@@H]2N1C(=O)NCc1ccccc1` [compound 18]: 360 nM.
On to `C=CCN1CC(=O)N2[C@@H](Cc3ccc(O)cc3)C(=O)N(Cc3cccc(C(=O)NCCO)c3)C[C@@H]2N1C(=O)NCc1ccccc1` [compound 19], for which the GI50 in the assay on MV-4-11 cells came to 450 nM.
Turning to `C=CCN1CC(=O)N2[C@@H](Cc3ccc(O)cc3)C(=O)N(Cc3ccc(OC)c(-c4ccncc4)c3)C[C@@H]2N1C(=O)NCc1ccccc1` [compound 20], the GI50 in the assay on MV-4-11 cells came to 2240 nM.
Turning to `C=CCN1CC(=O)N2[C@@H](Cc3ccc(O)cc3)C(=O)N(Cc3ccc(F)c(Br)c3)C[C@@H]2N1C(=O)NCc1ccccc1` [compound 21], the GI50 with MV-4-11 cells was found to be 300 nM.
For `C=CCN1CC(=O)N2[C@@H](Cc3ccc(O)cc3)C(=O)N(Cc3cccc(-c4cccnc4OC)c3)C[C@@H]2N1C(=O)NCc1ccccc1` [compound 22], in the assay on MV-4-11 cells, the GI50 is 740 nM.
On to `C=CCN1CC(=O)N2[C@@H](Cc3ccc(O)cc3)C(=O)N(Cc3cccc(C(=O)NNC(=O)OC(C)(C)C)c3)C[C@@H]2N1C(=O)NCc1ccccc1` [compound 23], for which, in the assay on MV-4-11 cells, the concentration for 50% growth inhibition (GI50) was 960 nM.
Turning to `C=CCN1CC(=O)N2[C@@H](Cc3ccc(O)cc3)C(=O)N(Cc3cccc(C(=O)NN)c3)C[C@@H]2N1C(=O)NCc1ccccc1` [compound 24], in the assay with MV-4-11 cells, the GI50 was 2030 nM.
As for `C=CCN1CC(=O)N2[C@@H](Cc3ccc(O)cc3)C(=O)N(Cc3ccc(F)c(-c4cccnc4)c3)C[C@@H]2N1C(=O)NCc1ccccc1` [compound 25], the GI50 in the assay on MV-4-11 cells turned out to be 240 nM.
Turning to `C=CCN1CC(=O)N2[C@@H](Cc3ccc(O)cc3)C(=O)N(Cc3cccc(C(=O)N4CCCCC4)c3)C[C@@H]2N1C(=O)NCc1ccccc1` [compound 26], in the assay with MV-4-11 cells, the GI50 is 780 nM.
On the same count and under the same terms, in the case of `C=CCN1CC(=O)N2[C@@H](Cc3ccc(O)cc3)C(=O)N(Cc3cccc(C(=O)N4CCCC4)c3)C[C@@H]2N1C(=O)NCc1ccccc1` [compound 27] it was 1110 nM; in that of `C=CCN1CC(=O)N2[C@@H](Cc3ccc(O)cc3)C(=O)N(Cc3ccccc3-n3cnnn3)C[C@@H]2N1C(=O)NCc1ccccc1` [compound 28], 1350 nM; in that of `C=CCN1CC(=O)N2[C@@H](Cc3ccc(O)cc3)C(=O)N(Cc3cccc(C(=O)NC)c3)C[C@@H]2N1C(=O)NCc1ccccc1` [compound 29], 390 nM.
For `C=CCN1CC(=O)N2[C@@H](Cc3ccc(O)cc3)C(=O)N(Cc3cccc(C(=O)N(C)C)c3)C[C@@H]2N1C(=O)NCc1ccccc1` [compound 30], the GI50 in the assay with MV-4-11 cells was 820 nM.
For `C=CCN1CC(=O)N2[C@@H](Cc3ccc(O)cc3)C(=O)N(Cc3cccc(C(N)=O)c3[N+](=O)[O-])C[C@@H]2N1C(=O)NCc1ccccc1` [compound 31], the GI50 in the assay on MV-4-11 cells is 5750 nM.
With `C=CCN1CC(=O)N2[C@@H](Cc3ccc(O)cc3)C(=O)N(Cc3ccc(CP(=O)(O)O)cc3)C[C@@H]2N1C(=O)NCc1ccccc1` [compound 32], the GI50 in the assay with MV-4-11 cells was above 50000 nM.
As to `C=CCN1CC(=O)N2[C@@H](Cc3ccc(O)cc3)C(=O)N(Cc3cccc(C(=O)NCCCOCCCC)c3)C[C@@H]2N1C(=O)NCc1ccccc1` [compound 33], the GI50 with MV-4-11 cells came to 650 nM.
On the same count and under the same terms, in the case of `C=CCN1CC(=O)N2[C@@H](Cc3ccc(O)cc3)C(=O)N(Cc3cccc(Cl)c3N(C)C)C[C@@H]2N1C(=O)NCc1ccccc1` [compound 34] it was 1250 nM.
For `C=CCN1CC(=O)N2[C@@H](Cc3ccc(O)cc3)C(=O)N(Cc3cccc(-c4ncc[nH]4)c3)C[C@@H]2N1C(=O)NCc1ccccc1` [compound 35], the GI50 in the assay with MV-4-11 cells worked out at 1120 nM.
Consider `C=CCN1CC(=O)N2[C@@H](Cc3ccc(O)cc3)C(=O)N(Cc3cccc(C(=O)NCCC)c3)C[C@@H]2N1C(=O)NCc1ccccc1` [compound 37], for which the GI50 with MV-4-11 cells is 240 nM.
Consider `C=CCN1CC(=O)N2[C@@H](Cc3ccc(O)cc3)C(=O)N(Cc3cccc(C(=O)NCC4CCCCC4)c3)C[C@@H]2N1C(=O)NCc1ccccc1` [compound 39], for which, in the assay on MV-4-11 cells, the GI50 amounted to 960 nM.
`C=CCN1CC(=O)N2[C@@H](Cc3ccc(O)cc3)C(=O)N(Cc3cccc(C(=O)NCC4CC4)c3)C[C@@H]2N1C(=O)NCc1ccccc1` [compound 40]: in the assay on MV-4-11 cells, the GI50 came out at 270 nM.
Still for that read-out and setting: in the case of `C=CCN1CC(=O)N2[C@@H](Cc3ccc(O)cc3)C(=O)N(Cc3cccc(C(=O)Nc4cc[nH]n4)c3)C[C@@H]2N1C(=O)NCc1ccccc1` [compound 41] it was 1560 nM.
On to `C=CCN1CC(=O)N2[C@@H](Cc3ccc(O)cc3)C(=O)N(Cc3cccc(C(=O)O)c3)C[C@@H]2N1C(=O)NCc1ccccc1` [compound 54], for which, in assay [1], the IC50 was above 50 µM.
Consider `C=CCN1CC(=O)N2[C@@H](Cc3ccc(OS(N)(=O)=O)cc3)C(=O)N(Cc3cccc(C(=O)O)c3)C[C@@H]2N1C(=O)NCc1ccccc1` [compound 55], for which, in assay [1], the IC50 is above 50 µM.
In the case of `C=CCN1CC(=O)N2[C@@H](Cc3ccc(O)cc3)C(=O)N(Cc3cccc(C(=O)O)n3)C[C@@H]2N1C(=O)NCc1ccccc1` [compound 56], the IC50 in assay [1] is above 50 µM.
Take `C=CCN1CC(=O)N2[C@@H](Cc3ccc(O)cc3)C(=O)N(Cc3ccc(CP(=O)(O)O)cc3)C[C@@H]2N1C(=O)NCc1ccccc1` [compound 57]: the IC50 in assay [1] is above 50 µM.
Still for that read-out and setting: in the case of `C=CCN1CC(=O)N2[C@@H](Cc3ccc(O)cc3)C(=O)N(Cc3cccc4c3ncn4CC(N)=O)C[C@@H]2N1C(=O)NCc1ccccc1` [compound 58] it was above 50 µM.
For `C=CCN1CC(=O)N2C(Cc3ccc(O)cc3)C(=O)N(Cc3cccc4c(-c5ccccc5)cn(S(=O)(=O)c5ccccc5)c34)C[C@@H]2N1C(=O)NCc1ccccc1` (stereo partly drawn) [compound 59], the IC50 in assay [1] turned out to be 2.63 µM.
On the same count and under the same terms, in the case of `C=CCN1CC(=O)N2[C@@H](Cc3ccc(O)cc3)C(=O)N(Cc3cccc4c(C(C)=O)c[nH]c34)C[C@@H]2N1C(=O)NCc1ccccc1` [compound 60] it was 4.84 µM.
Consider `C=CCN1CC(=O)N2[C@@H](Cc3ccc(O)cc3)C(=O)N(Cc3cccc4c(C(=O)C5CC5)c[nH]c34)C[C@@H]2N1C(=O)NCc1ccccc1` [compound 61], for which, in assay [1], the half-inhibitory concentration (IC50) stood at 5.92 µM.
